From ChEMBL document CHEMBL1145488, “Transient loss of high-level mupirocin resistance in Staphylococcus aureus due to MupA polymorphism” (2007)
≈ marks a conversion by molar mass, not a printed value.

Experiments:
Format in all cases: functional
[1] = system: Staphylococcus aureus; assay: Antibacterial activity against Staphylococcus aureus MB1348 with mupA gene mutation by broth microdilution
[2] = system: Staphylococcus aureus; assay: Antibacterial activity against Staphylococcus aureus J2870 with mupA gene mutation
[3] = system: Staphylococcus aureus; assay: Antibacterial activity against Staphylococcus aureus MB1348 with mupA gene mutation by Etest
[4] = system: Staphylococcus aureus; assay: Antibacterial activity against Staphylococcus aureus with ileS gene mutation

Question: For `C/C(=C\C(=O)OCCCCCCCCC(=O)O)C[C@@H]1OC[C@H](C[C@@H]2O[C@H]2[C@@H](C)[C@H](C)O)[C@@H](O)[C@H]1O` [MUPIROCIN], which MIC [1] is on record?
Answer: 0.25 µg/mL (≈ 0.499 µM)

Question: What about the MIC [2] of the same compound?
Answer: ≥ 512 µg/mL

Question: What about the MIC [3] of the same compound?
Answer: > 256 µg/mL

Question: And the MIC [4]?
Answer: 8 µg/mL (≈ 16 µM)
